Common to all, as to test: Antimicrobial susceptibility testing (NCCLS M7-A5), MIC
Type in all cases: cell-based

Experiment [1] relates to Escherichia coil ATCC 25922. The note with it: ATCC25922, in vitro, read-out: Minimum Inhibitory Concentration (MIC). The method, then:
(§1) Antimicrobial susceptibility testing was performed in accordance with the National Committee for Clinical Laboratory Standards (NCCLS) procedure [M7-A5, 2001]. […] Methods for Dilution Antimicrobial Susceptibility Tests for Bacteria That Grow Aerobically; Approved Standard—Fifth Edition American National Standard

The subject of experiment [2] is Staphylococcus aureus ATCC 25923. The note with it: ATCC25923, in vitro, read-out: Minimum Inhibitory Concentration (MIC). The procedure: as §1
Experiment [3] deals with Staphylococcus epidermidis ATCC 12228. To be noted: ATCC12228, in vitro, read-out: Minimum Inhibitory Concentration (MIC). The procedure:
as §1

The subject of experiment [4] is Streptococcus pneumoniae ATCC 49619. To be noted: ATCC49619, in vitro, read-out: Minimum Inhibitory Concentration (MIC). The method, then: as §1
Experiment [5] has as its system Enterococcus faecalis ATCC 29212. The note with it: ATCC29212, in vitro, read-out: Minimum Inhibitory Concentration (MIC). The method, then:
as §1

Experiment [6] deals with Bacillus subtilis ATCC 6051. The note with it: ATCC6051, in vitro, read-out: Minimum Inhibitory Concentration (MIC). The procedure:
as §1

≈ marks a conversion by molar mass, not a printed value.

In the case of `COc1cc(Cc2cnc(N)nc2N)c2cc(CC3CC3)oc2c1OC` [Example 20, 5-(2-Cyclopropylmethyl-6,7-dimethoxy-benzofuran-4-ylmethyl)-pyrimidine-2,4-diamine], the MIC in experiment [1] was 4 µg/mL (≈ 11.3 µM); in experiment [2], 0.062 µg/mL (≈ 0.175 µM); in experiment [3], 0.062 µg/mL (≈ 0.175 µM); in experiment [4] it was 0.125 µg/mL (≈ 0.353 µM); in experiment [5], 0.5 µg/mL (≈ 1.41 µM); in experiment [6], 0.062 µg/mL (≈ 0.175 µM).
On to `COc1cc(Cc2cnc(N)nc2N)c2cc(Cc3ccccc3)oc2c1OC` [Example 21, 5-(2-Benzyl-6,7-dimethoxy-benzofuran-4-ylmethyl)-pyrimidine-2,4-diamine], for which the MIC in experiment [1] turned out to be 2 µg/mL (≈ 5.12 µM); in experiment [2] it was 0.062 µg/mL (≈ 0.159 µM); in experiment [3], 0.062 µg/mL (≈ 0.159 µM); in experiment [4], 0.5 µg/mL (≈ 1.28 µM); in experiment [5], 0.125 µg/mL (≈ 0.32 µM); in experiment [6] it was 0.062 µg/mL (≈ 0.159 µM).
As for `COc1cc(Cc2cnc(N)nc2N)c2cc(Cc3ccc(F)cc3)oc2c1OC` [Example 72, 5-[2-(4-fluoro-benzyl)-6,7-dimethoxy-benzofuran-4-ylmethyl]-pyrimidine-2,4-diamine], the MIC was determined as 2 µg/mL (≈ 4.9 µM) in experiment [1]; 0.25 µg/mL (≈ 0.612 µM) in experiment [2]; 0.015 µg/mL (≈ 0.0367 µM) in experiment [3]; 0.5 µg/mL (≈ 1.22 µM) in experiment [4]; 1 µg/mL (≈ 2.45 µM) in experiment [5]; 0.25 µg/mL (≈ 0.612 µM) in experiment [6].
As for `COc1cc(Cc2cnc(N)nc2N)cc(OC)c1OC` [Trimethoprim, 2,4-diamino-5-(3,4,5-trimethoxybenzyl)pyrimidine, reference compound], the MIC in experiment [1] amounted to 0.25 µg/mL (≈ 0.861 µM); in experiment [2], 2 µg/mL (≈ 6.89 µM); in experiment [3] it was 0.062 µg/mL (≈ 0.214 µM); in experiment [4], 2 µg/mL (≈ 6.89 µM); in experiment [5], 0.5 µg/mL (≈ 1.72 µM); in experiment [6] it was 0.5 µg/mL (≈ 1.72 µM).
